Assay results reported in ChEMBL document CHEMBL1201862, “PubChem BioAssay data set” (2004).
Values joined by “and” are separate entries in the source; they are usually repeats but may differ in a detail not shown here. Equal entries are not always repeated. Active and inactive are the calls of the source.

Key:
Cytochrome P450 2D6 = Cytochrome P450 2D6 (Homo sapiens, UniProt P10635);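 note: CYP2D6 member of a cytochrome P450 panel assay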
Cytochrome P450 2C9 = Cytochrome P450 2C9 (Homo sapiens, UniProt P11712)
Cytochrome P450 3A4 = Cytochrome P450 3A4 (Homo sapiens, UniProt P08684);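 note: CYP3A4 tested as one member of a cytochrome P450 panel screen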
[1] = inhibitors of intracellular T. cruzi replication, confirmation, NIH3T3 host cells, beta-gal luminescence (AID 2044); assay type: functional, cell-based;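 note: intracellular parasites grown in NIH/3T3 mouse fibroblasts as host cells; luminescent beta-galactosidase reporter signal from transgenic T. cruzi replicating inside host cells; inhibitors lower the luminescence signal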
[2] = cytotoxicity toward NIH3T3 fibroblasts, dose response, counter-screen, cell-based, ATP luminescence, mouse fibroblasts (AID 2010); assay type: functional;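 note: cells exposed to compound for about 90 hours before reading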
Cytochrome P450 2C19 = Cytochrome P450 2C19 (Homo sapiens, UniProt P33261); assay: Cytochrome panel assay with activity outcomes. Panel member name: p450-cyp2c19 Compounds with AC50 equal or less than 10 uM are considered active; assay type: functional
[3] = Luminescence Cell-Based Dose Retest to Confirm Inhibitors of Cancer Stem Cells. [Related pubchem assays (depositor defined):AID2717, AID2721]; assay type: functional; details: Homo sapiens
INS1 = assay: beta cell apoptosis inhibitors, cytokine rescue, dose response, luminescence, retest (AID 449756); assay type: functional, cell-based; details: Rattus norvegicus;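 note: cell death triggered by IL-1 beta plus TNF-alpha plus IFN-gamma mixture; protective hits raise ATP signal compared with cytokine alone wells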

Chain of Cytochrome P450 2C19 (P33261 whole entry): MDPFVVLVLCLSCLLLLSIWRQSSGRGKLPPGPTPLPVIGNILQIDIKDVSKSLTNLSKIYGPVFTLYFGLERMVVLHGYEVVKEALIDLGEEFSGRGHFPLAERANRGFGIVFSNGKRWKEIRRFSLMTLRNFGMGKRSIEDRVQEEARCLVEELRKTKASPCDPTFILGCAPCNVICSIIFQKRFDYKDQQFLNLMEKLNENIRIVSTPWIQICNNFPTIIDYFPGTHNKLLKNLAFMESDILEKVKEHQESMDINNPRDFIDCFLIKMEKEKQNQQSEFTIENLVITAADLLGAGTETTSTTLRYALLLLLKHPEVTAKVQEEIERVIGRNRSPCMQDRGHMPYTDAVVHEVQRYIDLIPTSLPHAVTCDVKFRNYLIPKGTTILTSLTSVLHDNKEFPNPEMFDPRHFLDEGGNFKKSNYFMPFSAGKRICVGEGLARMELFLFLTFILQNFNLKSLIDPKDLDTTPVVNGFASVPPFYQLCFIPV
Chain of Cytochrome P450 2C9 (P11712 whole entry): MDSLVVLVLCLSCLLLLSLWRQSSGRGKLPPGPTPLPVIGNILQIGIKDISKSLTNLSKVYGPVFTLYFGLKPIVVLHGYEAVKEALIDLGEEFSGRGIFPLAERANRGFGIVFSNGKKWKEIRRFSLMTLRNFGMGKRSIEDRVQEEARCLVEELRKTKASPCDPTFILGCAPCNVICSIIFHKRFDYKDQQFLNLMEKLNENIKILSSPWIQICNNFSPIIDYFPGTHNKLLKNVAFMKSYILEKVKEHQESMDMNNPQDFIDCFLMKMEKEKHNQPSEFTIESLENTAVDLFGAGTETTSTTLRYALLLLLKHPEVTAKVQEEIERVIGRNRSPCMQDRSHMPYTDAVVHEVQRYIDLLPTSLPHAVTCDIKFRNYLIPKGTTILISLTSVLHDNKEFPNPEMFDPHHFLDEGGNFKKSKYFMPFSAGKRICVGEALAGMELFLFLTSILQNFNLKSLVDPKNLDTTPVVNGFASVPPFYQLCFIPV
Chain of Cytochrome P450 2D6 (P10635 whole entry): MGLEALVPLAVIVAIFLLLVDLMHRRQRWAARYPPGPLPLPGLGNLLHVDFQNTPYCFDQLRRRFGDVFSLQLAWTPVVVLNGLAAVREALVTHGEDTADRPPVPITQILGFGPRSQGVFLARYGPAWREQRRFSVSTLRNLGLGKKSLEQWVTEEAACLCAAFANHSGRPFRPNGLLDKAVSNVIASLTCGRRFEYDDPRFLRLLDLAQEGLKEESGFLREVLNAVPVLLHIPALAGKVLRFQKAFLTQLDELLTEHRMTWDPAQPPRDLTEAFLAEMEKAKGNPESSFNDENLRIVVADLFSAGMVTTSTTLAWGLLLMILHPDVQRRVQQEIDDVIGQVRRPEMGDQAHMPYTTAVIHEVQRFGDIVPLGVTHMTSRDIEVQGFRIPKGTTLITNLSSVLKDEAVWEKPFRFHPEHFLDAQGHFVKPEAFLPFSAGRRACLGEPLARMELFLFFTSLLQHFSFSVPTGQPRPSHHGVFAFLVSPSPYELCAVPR
Chain of Cytochrome P450 3A4 (P08684 whole entry): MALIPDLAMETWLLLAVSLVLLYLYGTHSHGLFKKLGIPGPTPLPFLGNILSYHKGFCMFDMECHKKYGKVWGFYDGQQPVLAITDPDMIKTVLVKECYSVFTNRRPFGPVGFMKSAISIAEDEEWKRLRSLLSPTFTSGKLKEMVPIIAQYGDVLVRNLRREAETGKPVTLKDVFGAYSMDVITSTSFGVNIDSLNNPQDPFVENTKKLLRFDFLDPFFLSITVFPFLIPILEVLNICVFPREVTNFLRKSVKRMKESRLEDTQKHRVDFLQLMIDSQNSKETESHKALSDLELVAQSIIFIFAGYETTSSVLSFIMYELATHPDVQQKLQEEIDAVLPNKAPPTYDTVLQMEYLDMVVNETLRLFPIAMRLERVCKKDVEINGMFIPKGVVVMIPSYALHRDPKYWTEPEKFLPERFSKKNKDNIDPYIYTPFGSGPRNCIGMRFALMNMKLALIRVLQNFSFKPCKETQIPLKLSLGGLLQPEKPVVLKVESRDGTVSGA

**Q.** For `Fc1ccc(N=C(S)NCCc2ccccc2)c(F)c1F`, which AC50 (Cytochrome P450 2D6) is on record?
**A.** Its AC50 is 15.8 µM (inconclusive).

**Q.** Which results are given for `O=c1c2cc(Br)ccc2[nH]c(=S)n1Cc1cccnc1`?
**A.** AC50 (Cytochrome P450 2C9): 12.6 µM (inconclusive); AC50 (Cytochrome P450 2D6): 8.91 µM (inconclusive)

**Q.** With `CC(=O)OC[C@@H]1O[C@H](C/C=N\O[C@@H](C)c2cn([C@H](CO)Cc3ccccc3)nn2)C=C[C@@H]1OC(C)=O` as the compound, how does the AC50 (Cytochrome P450 3A4) read?
**A.** The AC50 was 5.01 µM (inconclusive) and 3.98 µM (inconclusive).

**Q.** What does the source list for `O=C(CN1C(=O)COc2ccccc21)N(Cc1cccnc1)Cc1cccc(F)c1`?
**A.** EC50 [1]: 0.557 µM (active); EC50 [2]: > 60 µM (not active)

**Q.** With `CC1=CC(=C(C#N)c2nc3ccccc3s2)C=C(C)N1Cc1ccco1` as the compound, how does the EC50 [1] read?
**A.** The EC50 was 1.75 µM (active).

**Q.** And the EC50 [2]?
**A.** Its EC50 is > 30 µM (not active).

**Q.** With `C[C@@H]1O[C@@H](O)[C@@H](O)[C@H](O)[C@H]1O` as the compound, how does the AC50 (Cytochrome P450 2C19) read?
**A.** The AC50 was “inconclusive”.

**Q.** Which results are given for `O=S(=O)(NCc1cc(-c2ccccc2)no1)c1ccc(Cl)cc1`?
**A.** AC50 (Cytochrome P450 3A4): 25.1 µM (inconclusive); AC50 (Cytochrome P450 2D6): 20 µM (inconclusive)

**Q.** With `CCOC(=O)c1c(-c2ccccc2)nc2c(C)cccn12` as the compound, how does the AC50 (Cytochrome P450 3A4) read?
**A.** Its AC50 is 14.1 µM (inconclusive).

**Q.** What about the AC50 (Cytochrome P450 2D6) of the same compound?
**A.** Its AC50 is 0.00562 µM (inconclusive).

**Q.** With `COc1cccc(NC(=S)N2CCn3cccc3C2c2cccnc2)c1` (stereo unspecified) as the compound, how does the EC50 [1] read?
**A.** The EC50 was 1.12 µM (active).

**Q.** What about the EC50 [2] of the same compound?
**A.** The EC50 was > 60 µM (not active).

**Q.** Which AC50 (Cytochrome P450 3A4) does the source give for `Cn1c(=O)c(-c2ccc(F)c(F)c2)nc2cncnc21` here?
**A.** Its AC50 is 20 µM (inconclusive).

**Q.** Which AC50 (Cytochrome P450 2C9) does the source give for `CCC(=O)Nc1ccc(C(=O)CSc2nnc(-c3ccc(O)cc3)n2CC2CCCO2)cc1OC` (stereo unspecified) here?
**A.** Its AC50 is 15.8 µM (inconclusive).

**Q.** With `Cc1noc(C)c1-c1nccc(NCc2ccccc2)n1` as the compound, how does the AC50 (Cytochrome P450 2D6) read?
**A.** The AC50 was 39.8 µM (inconclusive).

**Q.** Which results are given for `CC(C)CN1CCCC2(CCN(C(=O)c3cccc(F)c3)CC2)C1`?
**A.** AC50 (Cytochrome P450 3A4): 25.1 µM (inconclusive); AC50 (Cytochrome P450 2D6): 12.6 µM (inconclusive)

**Q.** With `Cc1ccc(C)c(N2CCN(CC(=O)Nc3ccc([N+](=O)[O-])cc3C(=O)Nc3ccccc3F)CC2)c1` as the compound, how does the EC50 [1] read?
**A.** The EC50 was 1.19 µM (active).

**Q.** What about the EC50 [2] of the same compound?
**A.** The EC50 was > 60 µM (not active).

**Q.** Which EC50 [1] does the source give for `O=C1CN(c2nc(-c3cccnc3)nc3scc(-c4ccccc4)c23)CCN1` here?
**A.** Its EC50 is 4.67 µM (active).

**Q.** What about the EC50 [2] of the same compound?
**A.** The EC50 was 59.3 µM (active).

**Q.** Which AC50 (Cytochrome P450 2C9) does the source give for `COc1ncc2nc(-c3ccc(Cl)cc3)c(=O)n(Cc3cccs3)c2n1` here?
**A.** The AC50 was 15.8 µM (inconclusive).

**Q.** And the AC50 (Cytochrome P450 2D6)?
**A.** The AC50 was 2.51 µM (inconclusive).

**Q.** For `O=C(CSc1nnc(-c2ccncc2)n1Cc1ccccc1)Nc1nccs1`, which AC50 (Cytochrome P450 2D6) is on record?
**A.** The AC50 was 17.8 µM (inconclusive).

**Q.** For `C#CCn1c(S(=O)(=O)Cc2ccc(OC)cc2)nc(-c2ccccc2)c1-c1ccccc1`, which AC50 (Cytochrome P450 2D6) is on record?
**A.** Its AC50 is 14.1 µM (inconclusive).

**Q.** For `O=C(CN1CCCCCC1)Nc1ccccc1Oc1ccccc1`, which AC50 [3] is on record?
**A.** Its AC50 is 493 nM (active).

**Q.** For `Cc1cnc(CNc2cc(-c3ccccc3CN(C)C)ncn2)cn1`, which AC50 (Cytochrome P450 2D6) is on record?
**A.** Its AC50 is 12.6 µM (inconclusive).

**Q.** For `c1cc(CCN2CCCCC2)ccn1`, which AC50 (Cytochrome P450 3A4) is on record?
**A.** The AC50 was 6.31 µM (inconclusive).

**Q.** With `O=[N+]([O-])c1nn(-c2ccccc2)[n+]([O-])c1NCCc1ccccc1` as the compound, how does the EC50 [1] read?
**A.** Its EC50 is 0.478 µM (active).

**Q.** What about the EC50 [2] of the same compound?
**A.** Its EC50 is > 60 µM (inconclusive).

**Q.** Which AC50 (Cytochrome P450 2C19) does the source give for `C=CC1=C[C@@H](O)C2OC2C12OCCCO2` (stereo partly specified) here?
**A.** Its AC50 is “inconclusive”.

**Q.** What does the source list for `FC(F)(F)c1cccc(CN2CCC(c3cc(-c4cccs4)[nH]n3)CC2)c1`?
**A.** EC50 [1]: 2.31 µM (active); EC50 [2]: 14.6 µM (active)

**Q.** For `Nc1ncnc2c1cnn2-c1ccccc1`, which AC50 (Cytochrome P450 2C19; read-out: AC50) is on record?
**A.** The AC50 was 4.47 µM (inconclusive).

**Q.** For `CCOC(=O)C1=C(CCc2ccccc2)NC(=O)NC1c1ccc2ccccc2c1` (stereo unspecified), which AC50 (INS1) is on record?
**A.** The AC50 was 31.5 µM (active).

**Q.** Which AC50 (Cytochrome P450 2C9) does the source give for `CCS(=O)(=O)c1ccc2c(c1)N(S(=O)(=O)c1ccccc1)CC(C(=O)O)O2` (stereo unspecified) here?
**A.** The AC50 was 12.6 µM (inconclusive).

**Q.** Which AC50 (Cytochrome P450 2C9) does the source give for `Fc1ccc(CN(C2=NCCN2)c2c(Cl)cccc2Cl)cc1` here?
**A.** The AC50 was 39.8 µM (inconclusive).

**Q.** Which AC50 (Cytochrome P450 2C19) does the source give for `CCN1CCN(CCC(=O)Nc2cccc(OC)c2)CC1.Cl` here?
**A.** Its AC50 is “inconclusive”.

**Q.** With `Cc1ccc(S(=O)ON2CCC(C(=O)O)(c3ccccc3)CC2)cc1` (stereo unspecified) as the compound, how does the AC50 (Cytochrome P450 2C19) read?
**A.** Its AC50 is “inconclusive”.

**Q.** With `COCC1CCCCN1Cc1c[nH]nc1-c1ccc2cc(OC)ccc2c1` (stereo unspecified) as the compound, how does the EC50 [1] read?
**A.** The EC50 was 0.679 µM (active).

**Q.** What about the EC50 [2] of the same compound?
**A.** The EC50 was > 60 µM (not active).

**Q.** For `C=C(CC1(C(C)NP(=O)(c2ccccc2)c2ccccc2)CC1)c1ccccc1` (stereo unspecified), which AC50 (Cytochrome P450 2D6) is on record?
**A.** Its AC50 is 39.8 µM (inconclusive).

**Q.** Which AC50 (Cytochrome P450 2C19) does the source give for `Clc1ccc(-c2nnc(-c3cccc4ccccc34)o2)cc1Cl` here?
**A.** The AC50 was “inconclusive”.

**Q.** Which AC50 (Cytochrome P450 3A4) does the source give for `O=C(c1ccco1)N1CCC[C@@]2(CCN(Cc3ccccc3)C2)C1` here?
**A.** Its AC50 is 20 µM (inconclusive).

**Q.** With `Cc1cc(C)c(S(=O)(=O)c2ccc(F)cc2C)c(Cl)n1` as the compound, how does the EC50 [1] read?
**A.** Its EC50 is 0.867 µM (active).

**Q.** And the EC50 [2]?
**A.** Its EC50 is > 60 µM (not active).

**Q.** With `COC(=O)[C@@]1(Cc2ccccc2)[C@H]2c3cc(C(=O)N(C)C)n(Cc4cc(C)n(C)n4)c3C[C@H]2CN1C(=O)c1ccccc1` as the compound, how does the AC50 (Cytochrome P450 2D6) read?
**A.** Its AC50 is 39.8 µM (inconclusive).

**Q.** Which AC50 (Cytochrome P450 2C19; read-out: AC50) does the source give for `COC1=CC(=O)O[C@@H](/C=C\c2ccccc2)C1` here?
**A.** Its AC50 is 5.01 µM (inconclusive).
